Laboratory results taken from US20160158317A1, “Antimicrobial Peptide Variants and Polynucleotides Encoding Same” (Adenium Biotech A/S, priority 2010, published 2016).
Several values for one entry are separate records, joined by “and”; a condition that tells them apart may be missing. Equal entries are not always repeated. Marks after values point to notes of the source that are not given here.

Tested on: Escherichia coli AID#172
Experiment: Peritonitis/sepsis model in neutropenic NMRI mice, effect over time of 7.5 mg/kg (Example 3)
Type: in vivo
Design: key to Score T = 0 hour / Score T = 5 hours / Score T = 2 hours: Score 0: Healthy.; Score 1: Minor clinical signs of infection and inflammation e.g. observations of minor signs of distress or changed activity.; Score 2: Clear signs of infection like, social withdrawal, lack of curiosity, changed body position, piloerection, or changes in pattern of movement.; Score 3: Severe signs of infection like stiff movements, lack of curiosity, changed body position, piloerection, pain, or changes in pattern of movement.; Score 4: Severe pain and the mouse was sacrificed immediately to minimize the suffering of the animal.; Score 5: The mouse was dead
Conditions: for CFU levels compared to vehicle: peritoneal fluid at 2 and 5 hours, blood at 5 hours, p<0.01; for difference in CFU levels compared to vehicle treatment, blood / difference in CFU levels compared to vehicle treatment, peritoneum: single i.v. dose (NZ17074 7.5 mg/kg, Meropenem 40 mg/kg); for Score T = 0 hour: score at start of treatment; for log10 CFU Mean Blood / log10 CFU mean PF: group mean; for log10 CFU mean PF / log10 CFU PF: peritoneal fluid
Method: The purpose of this study was to investigate the in vivo efficacy of NZ17074 following intravenous (i.v.) administration of a single dose of 7.5 mg/kg. The effect was tested against Escherichia coli AID#172 in the peritonitis model in neutropenic NMRI mice to avoid the use of mucin as normally applied in the murine peritonitis model. The mice were rendered neutropenic by cyclophosphamide injections. Treatment with 40 mg/kg meropenem was included as a positive control group and treatment with vehicle was included as a negative control group. The colony counts in peritoneal fluid and blood were determined at 2 and 5 hours after treatment.
• 30 outbred, NMRI female mice, 28-32 grams (Harlan Scandinavia) • Escherichia coli AID#172 from Statens Serum Institute, Copenhagen, Denmark. Clinical isolate from a human wound from 2003. Multiresistant (Ampicillin, Ceftazidime, Aztreonam, Gentamicin, Ciprofloxacin) • NZ17074 in Ringer Acetate pH 6, 1.2 ml 0.75 mg/ml. […] Lot no. 09466C Date of expiration: 08-2013 • APODAN®(A-Pharma, 1 g cyclophosphamide) Batch nr. 928491 • Date of expiration: May 2012 • Water, sterile • 0.9% saline, sterile • 5% Horse Blood Agar plates • Lactose bromthymol blue agar plates
The mice were rendered neutropenic by injecting 0.5 ml cyclophosphamide solution intraperitoneally 4 days (200 mg/kg) and 1 day (100 mg/kg) prior to inoculation.
Fresh overnight E. coli AID#172 colonies from a 5% Horse Blood Agar plate were suspended and diluted in sterile saline to approximately 2×10^6CFU/ml.
One hour before start of treatment (time −1 hour) mice were inoculated intraperitoneally with 0.5 ml of the E. coli suspension in the lateral lower quadrant of the abdomen.
The mice were clinically scored for signs of infection at the time of each sampling. • Score 0: Healthy. • Score 1: Minor clinical signs of infection and inflammation e.g. observations of minor signs of distress or changed activity. • Score 2: Clear signs of infection like, social withdrawal, lack of curiosity, changed body position, piloerection, or changes in pattern of movement. • Score 3: Severe signs of infection like stiff movements, lack of curiosity, forced ventilation, changed body position, piloerection, pain, or changes in pattern o movement. • Score 4: Severe pain and the mouse was sacrificed immediately to minimize the suffering of the animal. • Score 5: The mouse was dead.
The mice were treated i.v. in the lateral tail vein over approximately 30 seconds with a single dose of NZ17074, meropenem or vehicle at time 0 hour (see Table 1). The dosing was based on a mean weight of 30 g. Mice that weighed 28-32 g received 0.30 ml solution. Mice that weighed 27-28 g received 0.25 ml solution and mice that weighed 32.1-36 g received 0.35 ml solution. Mouse 17 accidently received 0.35 ml although it weighed 29.5 g.
Colony counts were determined from blood and peritoneal fluid at 0, 2 and 5 hours after treatment according to Table 1.
The mice were anesthetized with O2+CO2 and blood was collected by axilliary cut down. The mice were sacrificed by cervical dislocation and a total of 2 ml sterile saline was injected i.p. and the abdomen gently massaged before it was opened and fluid sampled with a pipette. Each sample was 10 fold diluted in saline and 20-microliter spots were applied on blood agar plates. All agar plates were incubated 18-22 hours at 35° C. in ambient air.
The CFU numbers are log10 transformed before performing calculations to obtain a normal distribution.

[1] = Meropenem 40 mg/kg single dose, sampling T = 2, individual mice
[2] = Meropenem 40 mg/kg single dose, sampling T = 5, p < 0.01 vs vehicle
[3] = Meropenem 40 mg/kg single dose, sampling T = 5, individual mice
[4] = Meropenem 40 mg/kg single dose, individual mice

C[C@@H](O)[C@H]1C(=O)N2C(C(=O)O)=C(S[C@@H]3CN[C@H](C(=O)N(C)C)C3)[C@H](C)[C@H]12 [meropenem]
CFU levels compared to vehicle, blood (40 mg/kg i.v., 2 hours after treatment): lack of significance
CFU levels compared to vehicle (40 mg/kg i.v.): significantly (p<0.01) reduced CFU levels
CFU levels compared to vehicle (40 mg/kg i.v., listed as Meropenem): significant reduction
difference in CFU levels compared to vehicle treatment, blood (2 hours): blood −0.82 log log cfu/ml
difference in CFU levels compared to vehicle treatment, peritoneum (2 hours): 2 hours: peritoneum −1.51 log cfu/ml
difference in CFU levels compared to vehicle treatment, blood (5 hours): blood −1.64 log log cfu/ml
difference in CFU levels compared to vehicle treatment, peritoneum (5 hours): 5 hours: peritoneum −1.51 log cfu/ml
Score T = 0 hour (Meropenem 40 mg/kg single dose, group sampled T = 2, individual mice): 0
Score T = 0 hour (Meropenem 40 mg/kg single dose, group sampled T = 5, individual mice): 0
log10 CFU Mean Blood (Meropenem 40 mg/kg single dose, sampling T = 2, not significant vs vehicle): 3.76 log10 CFU
log10 CFU Blood [1]: 3.60 log10 CFU and 3.57 log10 CFU and 4.11 log10 CFU
log10 CFU Mean Blood [2]: 3.10** log10 CFU
log10 CFU Blood [3]: 3.20 log10 CFU and 2.85 log10 CFU and 3.26 log10 CFU
Score T = 2 hours [4]: 1
Score T = 5 hours [4]: 0
log10 CFU mean PF (Meropenem 40 mg/kg single dose, sampling T = 2, p < 0.01 vs vehicle): 3.92** log10 CFU
log10 CFU PF [1]: 4.12 log10 CFU and 3.40 log10 CFU and 4.24 log10 CFU
log10 CFU mean PF [2]: 4.21** log10 CFU
log10 CFU PF [3]: 4.38 log10 CFU and 4.00 log10 CFU and 4.26 log10 CFU
